Key:
HCT-116 [1] = test: Antiproliferative activity against human HCT-116 cells assessed as cell growth inhibition at 0.1 uM incubated for 72 hrs by SRB assay; format: functional
A549 [2] = test: Antiproliferative activity against human A549 cells assessed as cell growth inhibition incubated for 72 hrs by SRB assay; format: functional, cell-based; conditions: A549, 72 h
[3] = Selectivity index, ratio of IC50 for antiproliferative activity against human L02 cells to IC50 for antiproliferative activity against human CFPAC-1 cells
A549 [4] = test: Antitumor activity against human A549 cells xenografted in BALB/c mouse assessed as tumor growth inhibition at 0.5 mg/kg,ip administrated for 21 days; format: functional; conditions: A549, 504 h, time 21 day, read-out: TGI
CFPAC-1 = test: Antiproliferative activity against human CFPAC-1 cells assessed as cell growth inhibition incubated for 72 hrs by SRB assay; format: functional, cell-based; conditions: CFPAC-1, 72 h
[5] = Acute toxicity in C57BL/6J mouse assessed as death at 0.75 mg/kg,ip measured after 14 days; format: organism-based; conditions: in vivo, 336 h, time 14 day
HeLa = test: Antiproliferative activity against human HeLa cells assessed as cell growth inhibition incubated for 72 hrs by SRB assay; format: functional, cell-based
A549 [6] = test: Induction of cell cycle arrest in human A549 cells assessed as accumulation of cells at G2 phase at 0.5 uM incubated for 24 hrs by PI staining based flow cytometric analysis (reference value: 9.26 %); format: functional
[7] = Antiproliferative activity against human L02 cells assessed as cell growth inhibition incubated for 72 hrs by SRB assay; format: toxicity, cell-based
A549 [8] = test: Induction of cell cycle arrest in human A549 cells assessed as accumulation of cells at S phase at 0.5 uM incubated for 24 hrs by PI staining based flow cytometric analysis (reference value: 23 %); format: functional
SK-OV-3 = test: Antiproliferative activity against human SK-OV-3 cells assessed as cell growth inhibition incubated for 72 hrs by SRB assay; format: functional, cell-based; conditions: SK-OV-3, 72 h
[9] = Selectivity index, ratio of IC50 for antiproliferative activity against human L02 cells to IC50 for antiproliferative activity against human SK-OV-3 cells
[10] = Antiproliferative activity against human L02 cells assessed as cell growth inhibition at 1 uM incubated for 72 hrs by SRB assay; format: toxicity, cell-based
[11] = Selectivity index, ratio of IC50 for antiproliferative activity against human L02 cells to IC50 for antiproliferative activity against human BXPC-3 cells; format: toxicity, cell-based; conditions: L02 cells versus BXPC-3 cells, read-out: Ratio IC50
HCT-116 [12] = test: Antiproliferative activity against human HCT-116 cells assessed as cell growth inhibition at 1 uM incubated for 72 hrs by SRB assay; format: functional
[13] = Selectivity index, ratio of IC50 for antiproliferative activity against human L02 cells to IC50 for antiproliferative activity against human A549 cells; format: toxicity, cell-based; conditions: L02 cells versus A549 cells, read-out: Ratio IC50
PANC-1 = test: Antiproliferative activity against human PANC-1 cells assessed as cell growth inhibition incubated for 72 hrs by SRB assay; format: functional, cell-based; conditions: PANC-1, 72 h
[14] = biological target: Insulin-like growth factor 2 mRNA-binding protein 1 (Homo sapiens, UniProt Q9NZI8); test: Binding affinity to His-tagged recombinant IGF2BP1 (unknown origin) assessed as dissociation constant by surface plasmon resonance assay
BXPC-3 = test: Antiproliferative activity against human BXPC-3 cells assessed as cell growth inhibition incubated for 72 hrs by SRB assay; format: functional, cell-based; conditions: BXPC-3, 72 h
MDA-MB-231 = test: Antiproliferative activity against human MDA-MB-231 cells assessed as cell growth inhibition incubated for 72 hrs by SRB assay; format: functional, cell-based; conditions: MDA-MB-231, 72 h
HepG2 [15] = test: Antiproliferative activity against human HepG2 cells assessed as cell growth inhibition incubated for 72 hrs by SRB assay; format: functional, cell-based; conditions: HepG2, 72 h
[16] = Selectivity index, ratio of IC50 for antiproliferative activity against human L02 cells to IC50 for antiproliferative activity against human HepG2 cells; format: toxicity, cell-based; conditions: L02 cells versus HepG2 cells, read-out: Ratio IC50
HCT-116 [17] = test: Antiproliferative activity against human HCT-116 cells assessed as cell growth inhibition incubated for 72 hrs by SRB assay; format: functional, cell-based; conditions: HCT-116, 72 h
[18] = Selectivity index, ratio of IC50 for antiproliferative activity against human L02 cells to IC50 for antiproliferative activity against human HeLa cells; format: toxicity, cell-based; conditions: L02 cells versus HeLa cells, read-out: Ratio IC50
A549 [19] = test: Induction of cell cycle arrest in human A549 cells assessed as accumulation of cells at G1 phase at 0.5 uM incubated for 24 hrs by PI staining based flow cytometric analysis (reference value: 65.6 %); format: functional
MCF7 = test: Antiproliferative activity against human MCF7 cells assessed as cell growth inhibition incubated for 72 hrs by SRB assay; format: functional, cell-based; conditions: MCF7, 72 h
A549 [20] = test: Induction of apoptosis in human A549 cells at 0.5 uM incubated for 48 hrs by Annexin V-FITC/PI staining based flow cytometric analysis; format: functional
[21] = Selectivity index, ratio of IC50 for antiproliferative activity against human L02 cells to IC50 for antiproliferative activity against human MCF7 cells; format: toxicity, cell-based; conditions: L02 cells versus MCF7 cells, read-out: Ratio IC50
[22] = Antiproliferative activity against human L02 cells assessed as cell growth inhibition at 0.1 uM incubated for 72 hrs by SRB assay; format: toxicity, cell-based
[23] = Selectivity index, ratio of IC50 for antiproliferative activity against human L02 cells to IC50 for antiproliferative activity against human HCT-116 cells; format: toxicity, cell-based; conditions: L02 cells versus HCT-116 cells, read-out: Ratio IC50
[24] = Selectivity index, ratio of IC50 for antiproliferative activity against human L02 cells to IC50 for antiproliferative activity against human PANC-1 cells
[25] = Selectivity index, ratio of IC50 for antiproliferative activity against human L02 cells to IC50 for antiproliferative activity against human MDA-MB-231 cells; format: toxicity, cell-based; conditions: L02 cells versus MDA-MB-231 cells, read-out: Ratio IC50
A549 [26] = test: Antiproliferative activity against human A549 cells assessed as cell growth inhibition; format: functional, cell-based
[27] = Antiproliferative activity against human L02 cells assessed as cell growth inhibition incubated for 72 hrs by MTT assay; format: toxicity, cell-based
HepG2 [28] = test: Antiproliferative activity against human HepG2 cells assessed as cell growth inhibition incubated for 72 hrs by MTT assay; format: functional, cell-based; conditions: HepG2, 72 h

Sequence of Insulin-like growth factor 2 mRNA-binding protein 1 (Q9NZI8 whole entry): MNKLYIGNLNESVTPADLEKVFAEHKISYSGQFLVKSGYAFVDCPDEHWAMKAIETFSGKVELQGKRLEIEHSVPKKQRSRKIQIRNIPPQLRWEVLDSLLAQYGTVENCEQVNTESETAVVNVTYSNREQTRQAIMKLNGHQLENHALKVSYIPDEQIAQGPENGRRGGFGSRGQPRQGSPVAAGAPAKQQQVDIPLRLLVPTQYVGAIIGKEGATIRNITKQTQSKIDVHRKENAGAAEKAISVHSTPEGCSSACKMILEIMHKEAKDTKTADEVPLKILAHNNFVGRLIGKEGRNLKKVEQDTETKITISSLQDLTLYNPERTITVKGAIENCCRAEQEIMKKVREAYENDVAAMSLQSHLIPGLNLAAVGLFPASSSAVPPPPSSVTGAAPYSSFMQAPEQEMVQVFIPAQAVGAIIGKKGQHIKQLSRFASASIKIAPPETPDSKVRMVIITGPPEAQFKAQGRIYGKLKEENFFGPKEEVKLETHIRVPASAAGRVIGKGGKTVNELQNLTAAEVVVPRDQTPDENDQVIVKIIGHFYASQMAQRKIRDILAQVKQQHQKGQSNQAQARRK

CC(=O)OC(C)(C)/C=C/C(=O)[C@](C)(O)[C@H]1[C@H](O)C[C@@]2(C)[C@@H]3CC=C4[C@@H](C[C@H](O)C(=O)C4(C)C)[C@]3(C)C(=O)C[C@]12C
inhibition at 0.1 µM (HCT-116 [1]): 69% | IC50 (A549 [2]): 0.088 µM | Ratio IC50 [3]: 0.49 | inhibition in vivo at 0.5 mg/kg (A549 [4]): 53% | IC50 (CFPAC-1): 0.023 µM | Activity [5]: Non-Toxic | IC50 (HeLa): 0.024 µM | Activity (A549 [6]): 37.2% | IC50 at 72 h [7]: 0.011 µM | Activity (A549 [8]): 10.2% | IC50 (SK-OV-3): 0.047 µM | Ratio IC50 [9]: 0.23 | inhibition at 72 h, 1 µM [10]: 70.7% | selectivity ratio [11]: 0.5 | inhibition at 1 µM (HCT-116 [12]): 82.7% | selectivity ratio [13]: 0.13 | IC50 (PANC-1): 0.067 µM | Kd [14]: 0.0662 µM | IC50 (BXPC-3): 0.022 µM | IC50 (MDA-MB-231): 0.037 µM | IC50 (HepG2 [15]): 0.051 µM | selectivity ratio [16]: 0.22 | IC50 (HCT-116 [17]): 0.019 µM | selectivity ratio [18]: 0.46 | Activity (A549 [19]): 51.1% | IC50 (MCF7): 0.04 µM | Activity (A549 [20]): 29.1% | selectivity ratio [21]: 0.23 | inhibition at 72 h, 0.1 µM [22]: 70.6% | selectivity ratio [23]: 0.57 | Ratio IC50 [24]: 0.16 | selectivity ratio [25]: 0.3

CC(=O)OC(C)(C)/C=C/C(=O)[C@](C)(O)[C@H]1[C@H](O)C[C@@]2(C)[C@@H]3CC=C4[C@@H](C[C@H](N)C(=O)C4(C)C)[C@]3(C)C(=O)C[C@]12C
IC50 (A549 [26]): 0.12 µM

CC(=O)OC(C)(C)/C=C/C(=O)[C@](C)(O)[C@H]1[C@H](O)C[C@@]2(C)[C@@H]3CC=C4[C@@H](C[C@H](OC(=O)c5ccccn5)C(=O)C4(C)C)[C@]3(C)C(=O)C[C@]12C
inhibition at 0.1 µM (HCT-116 [1]): 67.9% | IC50 at 72 h [7]: 0.034 µM | inhibition at 72 h, 1 µM [10]: 71.2% | inhibition at 1 µM (HCT-116 [12]): 83.1% | IC50 (HCT-116 [17]): 0.079 µM | inhibition at 72 h, 0.1 µM [22]: 44.8% | selectivity ratio [23]: 0.43

CC(=O)OC(C)(C)/C=C/C(=O)[C@](C)(O)[C@H]1[C@H](OCCCC(=O)OCCCOc2no[n+]([O-])c2S(=O)(=O)c2ccccc2)C[C@@]2(C)[C@@H]3CC=C4[C@@H](C[C@H](O)C(=O)C4(C)C)[C@]3(C)C(=O)C[C@]12C
IC50 at 72 h [27]: 2.97 µM | IC50 (HepG2 [28]): 0.63 µM

CC(=O)OC(C)(C)/C=C/C(=O)[C@](C)(O)[C@H]1[C@H](O)C[C@@]2(C)[C@@H]3CC=C4[C@@H](C[C@H](OC(=O)Cn5ncn(-c6ccccc6)c5=O)C(=O)C4(C)C)[C@]3(C)C(=O)C[C@]12C
inhibition at 0.1 µM (HCT-116 [1]): 67.9% | IC50 at 72 h [7]: 0.08 µM | inhibition at 72 h, 1 µM [10]: 71.6% | inhibition at 1 µM (HCT-116 [12]): 82.2% | IC50 (HCT-116 [17]): 0.051 µM | inhibition at 72 h, 0.1 µM [22]: 59.6% | selectivity ratio [23]: 1.57

CC(=O)OC(C)(C)/C=C/C(=O)[C@](C)(O)[C@H]1[C@H](O)C[C@@]2(C)[C@@H]3CC=C4[C@@H](C[C@H](OC(=O)Cn5ncn(-c6ccc(Br)cc6)c5=O)C(=O)C4(C)C)[C@]3(C)C(=O)C[C@]12C
inhibition at 0.1 µM (HCT-116 [1]): 70.8% | IC50 at 72 h [7]: 0.031 µM | inhibition at 72 h, 1 µM [10]: 67.5% | inhibition at 1 µM (HCT-116 [12]): 84.2% | IC50 (HCT-116 [17]): 0.076 µM | inhibition at 72 h, 0.1 µM [22]: 54.1% | selectivity ratio [23]: 0.41

COc1cc(-n2cnn(CC(=O)O[C@H]3C[C@@H]4C(=CC[C@@H]5[C@@]4(C)C(=O)C[C@]4(C)[C@@H]([C@@](C)(O)C(=O)/C=C/C(C)(C)OC(C)=O)[C@H](O)C[C@@]54C)C(C)(C)C3=O)c2=O)cc(OC)c1OC
inhibition at 0.1 µM (HCT-116 [1]): 78% | IC50 at 72 h [7]: 0.03 µM | inhibition at 72 h, 1 µM [10]: 70% | inhibition at 1 µM (HCT-116 [12]): 84.2% | IC50 (HCT-116 [17]): 0.037 µM | inhibition at 72 h, 0.1 µM [22]: 66% | selectivity ratio [23]: 0.81

CC1(C)C(=O)[C@@H](O)C[C@@H]2C1=CC[C@@H]1[C@@]2(C)C(=O)C[C@]2(C)[C@@H]([C@@](C)(O)C(=O)/C=C/C(C)(C)c3cccc(C#N)c3)[C@H](O)C[C@@]12C
IC50 (A549 [26]): 0.0068 µM

CC(=O)OC(C)(C)/C=C/C(=O)[C@](C)(O)[C@H]1[C@H](O)C[C@@]2(C)[C@@H]3CC=C4[C@@H](C[C@H](OC(=O)c5cn(-c6ccc(F)cc6)nn5)C(=O)C4(C)C)[C@]3(C)C(=O)C[C@]12C
inhibition at 0.1 µM (HCT-116 [1]): 65.3% | IC50 at 72 h [7]: 0.08 µM | inhibition at 72 h, 1 µM [10]: 71.9% | inhibition at 1 µM (HCT-116 [12]): 87.4% | IC50 (HCT-116 [17]): 0.031 µM | inhibition at 72 h, 0.1 µM [22]: 36.4% | selectivity ratio [23]: 2.58
